Assay results: patent publication US20250195521A1 (Revolution Medicines, Inc., priority 2020, published 2025)

Columns and labels:
[1] = test system: Capan-1 cells (K-Ras G12V); experiment: CellTiter-Glo cell viability, Capan-1; type: cell-based, human; conditions: Homo sapiens, CAPAN-1, 120 h, K-Ras G12V, 5-day treatment; read-out: Capan-1 Cell Viability IC50
In short: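 Compounds dispensed directly onto seeded cells; on day 5 plates equilibrated ~30 min to room temperature and luminescence read. Signal normalized to DMSO average (%) and fitted by four-parameter logistic.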

KRAS G12C = KRAS G12C (Homo sapiens (Human), UniProt P01116+P62937, G12C); experiment: Ras-Raf disruption/FRET/MOA assay (BRAF RBD, Cyclophilin A); type: biochemical; conditions: read-out: KRAS G12C FRET IC50
Chain of KRAS G12C (P01116-2 other isoform, or with tags, fused parts or gaps G12C): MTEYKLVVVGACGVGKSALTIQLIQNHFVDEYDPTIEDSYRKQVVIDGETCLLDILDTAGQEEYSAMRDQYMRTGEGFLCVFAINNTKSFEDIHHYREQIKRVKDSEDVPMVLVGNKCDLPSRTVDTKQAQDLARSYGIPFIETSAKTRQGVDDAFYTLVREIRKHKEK
Chain of KRAS G12C (P62937 whole entry): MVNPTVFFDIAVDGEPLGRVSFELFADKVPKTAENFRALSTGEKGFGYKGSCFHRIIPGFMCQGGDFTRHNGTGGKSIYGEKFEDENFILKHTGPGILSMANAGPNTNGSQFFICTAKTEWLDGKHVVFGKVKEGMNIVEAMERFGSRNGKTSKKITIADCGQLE
In short: (§1)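 Measured: compound-facilitated Cyclophilin A:Ras complex blocking RAF RBD binding. Conditions: 12.5 nM Ras-GMPPNP, 50 nM BRAF RBD, 25 μM CypA, 3 h plus 1.5 h detection. Output: IC50 from TR-FRET ratio.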

KRAS G12D = KRAS G12D (Homo sapiens (Human), UniProt P01116+P62937, G12D); experiment: as above; type: biochemical; conditions: read-out: KRAS G12D FRET IC50
Chain of KRAS G12D (P01116 other isoform, or with tags, fused parts or gaps G12D): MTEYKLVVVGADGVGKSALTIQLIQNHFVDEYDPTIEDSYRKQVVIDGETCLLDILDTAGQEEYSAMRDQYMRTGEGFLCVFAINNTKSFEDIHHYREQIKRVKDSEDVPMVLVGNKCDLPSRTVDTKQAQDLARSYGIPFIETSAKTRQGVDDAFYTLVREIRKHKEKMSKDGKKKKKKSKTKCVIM
Chain of KRAS G12D (P62937 whole entry): as the sequence (P62937 whole entry) above
In short: as §1

KRAS G12S = KRAS G12S (Homo sapiens (Human), UniProt P01116+P62937, G12S); experiment: as above; type: biochemical; conditions: read-out: KRAS G12S FRET IC50
Chain of KRAS G12S (P01116 other isoform, or with tags, fused parts or gaps G12S): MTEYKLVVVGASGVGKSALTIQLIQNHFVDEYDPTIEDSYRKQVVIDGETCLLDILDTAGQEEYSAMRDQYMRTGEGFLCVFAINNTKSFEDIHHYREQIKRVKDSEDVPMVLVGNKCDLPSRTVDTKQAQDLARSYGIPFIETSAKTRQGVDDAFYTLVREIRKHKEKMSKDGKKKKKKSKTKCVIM
Chain of KRAS G12S (P62937 whole entry): as the sequence (P62937 whole entry) above
In short: as §1

KRAS G12V = KRAS G12V (Homo sapiens (Human), UniProt P01116+P62937, G12V); experiment: as above; type: biochemical; conditions: read-out: KRAS G12V FRET IC50
Chain of KRAS G12V (P01116 other isoform, or with tags, fused parts or gaps G12V): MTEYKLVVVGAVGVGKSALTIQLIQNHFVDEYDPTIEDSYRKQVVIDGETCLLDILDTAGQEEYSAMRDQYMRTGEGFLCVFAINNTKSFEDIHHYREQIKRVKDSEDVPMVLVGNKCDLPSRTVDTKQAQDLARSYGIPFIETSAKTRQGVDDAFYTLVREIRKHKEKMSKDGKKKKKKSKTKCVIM
Chain of KRAS G12V (P62937 whole entry): as the sequence (P62937 whole entry) above
In short: as §1

KRAS G13C = KRAS G13C (Homo sapiens (Human), UniProt P01116+P62937, G13C); experiment: as above; type: biochemical; conditions: read-out: KRAS G13C FRET IC50
Chain of KRAS G13C (P01116 other isoform, or with tags, fused parts or gaps G13C): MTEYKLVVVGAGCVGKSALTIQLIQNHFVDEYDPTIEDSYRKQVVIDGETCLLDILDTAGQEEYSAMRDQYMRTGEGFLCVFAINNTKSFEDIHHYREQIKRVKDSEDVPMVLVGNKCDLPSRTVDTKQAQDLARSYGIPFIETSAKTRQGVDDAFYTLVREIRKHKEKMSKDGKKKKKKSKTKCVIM
Chain of KRAS G13C (P62937 whole entry): as the sequence (P62937 whole entry) above
In short: as §1

KRAS G13D = KRAS G13D (Homo sapiens (Human), UniProt P01116+P62937, G13D); experiment: as above; type: biochemical; conditions: read-out: KRAS G13D FRET data IC50
Chain of KRAS G13D (P01116 other isoform, or with tags, fused parts or gaps G13D): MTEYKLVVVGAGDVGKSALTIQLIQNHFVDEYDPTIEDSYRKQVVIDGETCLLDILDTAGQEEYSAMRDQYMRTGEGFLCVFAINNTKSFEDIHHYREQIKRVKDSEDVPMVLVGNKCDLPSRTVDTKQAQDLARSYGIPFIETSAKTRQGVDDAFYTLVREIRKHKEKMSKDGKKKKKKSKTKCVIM
Chain of KRAS G13D (P62937 whole entry): as the sequence (P62937 whole entry) above
In short: as §1

KRAS Q61H = KRAS Q61H (Homo sapiens (Human), UniProt P01116+P62937, Q61H); experiment: as above; type: biochemical
Chain of KRAS Q61H (P01116 other isoform, or with tags, fused parts or gaps Q61H): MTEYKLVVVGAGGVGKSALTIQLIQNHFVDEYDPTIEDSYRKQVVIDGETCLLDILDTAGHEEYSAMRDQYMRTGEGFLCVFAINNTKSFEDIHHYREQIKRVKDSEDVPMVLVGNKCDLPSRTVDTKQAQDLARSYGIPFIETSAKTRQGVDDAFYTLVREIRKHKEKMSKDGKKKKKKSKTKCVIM
Chain of KRAS Q61H (P62937 whole entry): as the sequence (P62937 whole entry) above
In short: as §1

KRAS WT = KRAS WT (Homo sapiens (Human), UniProt P01116+P62937); experiment: as above; type: biochemical; conditions: read-out: KRAS WT FRET data IC50
Chain of KRAS WT (P01116 other isoform, or with tags, fused parts or gaps): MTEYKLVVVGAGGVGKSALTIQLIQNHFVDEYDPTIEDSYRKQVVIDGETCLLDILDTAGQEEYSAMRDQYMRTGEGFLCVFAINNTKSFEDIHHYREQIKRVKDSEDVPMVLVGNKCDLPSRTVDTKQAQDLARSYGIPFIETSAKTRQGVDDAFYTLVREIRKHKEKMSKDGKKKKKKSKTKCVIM
Chain of KRAS WT (P62937 whole entry): as the sequence (P62937 whole entry) above
In short: as §1

NRAS G12C = NRAS G12C (Homo sapiens (Human), UniProt P01111+P62937, G12C); experiment: as above; type: biochemical; conditions: read-out: NRAS G12C FRET data IC50
Chain of NRAS G12C (P01111 whole entry G12C): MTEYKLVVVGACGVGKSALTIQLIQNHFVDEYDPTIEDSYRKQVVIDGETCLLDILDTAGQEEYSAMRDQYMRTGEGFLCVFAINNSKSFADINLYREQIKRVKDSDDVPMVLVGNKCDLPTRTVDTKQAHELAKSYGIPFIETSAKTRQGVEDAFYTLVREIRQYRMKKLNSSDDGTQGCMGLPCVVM
Chain of NRAS G12C (P62937 whole entry): as the sequence (P62937 whole entry) above
In short: (§2)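 25 μM tagless Cyclophilin A, 12.5 nM His6-Ras-GMPPNP and 50 nM GST-BRAF RBD in HEPES pH 7.3 buffer with 5 mM MgCl2, with compound (10-point 3-fold series from 30 μM final) for 3 h at 25 °C. Anti-His Eu and anti-GST APC then added for 1.5 h. IC50 from TR-FRET ratio decrease versus DMSO.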

NRAS Q61K = NRAS Q61K (Homo sapiens (Human), UniProt P01111+P62937, Q61K); experiment: as above; type: biochemical
Chain of NRAS Q61K (P01111 whole entry Q61K): as the sequence (P01111 whole entry G12C) above, with C12G, Q61K counted along it
Chain of NRAS Q61K (P62937 whole entry): as the sequence (P62937 whole entry) above
In short: as §2

NRAS Q61R = NRAS Q61R (Homo sapiens (Human), UniProt P01111+P62937, Q61R); experiment: as above; type: biochemical
Chain of NRAS Q61R (P01111 whole entry Q61R): as the sequence (P01111 whole entry G12C) above, with C12G, Q61R counted along it
Chain of NRAS Q61R (P62937 whole entry): as the sequence (P62937 whole entry) above
In short: as §2

NRAS WT = NRAS WT (Homo sapiens (Human), UniProt P01111+P62937); experiment: as above; type: biochemical
Chain of NRAS WT (P01111 whole entry): as the sequence (P01111 whole entry G12C) above, with C12G counted along it
Chain of NRAS WT (P62937 whole entry): as the sequence (P62937 whole entry) above
In short: as §2

[2] = test system: K-Ras G12C (NCI-H358 cells); experiment: Potency assay: pERK in NCI-H358 cells; type: cell-based, human; conditions: Homo sapiens; NCI-H358 cells, 4 hours; read-out: pERK EC50 (H358 KRAS G12C)
In short: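 Cells plated the day before were exposed for 4 h at 37° C, 5% CO2 to a 10-point, 3-fold DMSO dilution series (10 mM top stock), in duplicate. Phospho-ERK was read by AlphaLISA SureFire Ultra or by In-Cell Western with DRAQ5 DNA stain, and IC50 came from a 4-parameter sigmoidal fit.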

Row | IC50 (KRAS G12C) [µM] | IC50 (KRAS G12D) [µM] | IC50 (KRAS G12S) [µM] | IC50 (KRAS G12V) [µM] | IC50 (KRAS G13C) [µM] | IC50 (KRAS G13D) [µM] | IC50 (KRAS Q61H) [µM] | IC50 (KRAS WT) [µM] | IC50 (NRAS G12C) [µM] | IC50 (NRAS Q61K) [µM] | IC50 (NRAS Q61R) [µM] | IC50 (NRAS WT) [µM] | EC50 [2] [µM] | SMILES | IC50 [1] [µM]
1 | 0.1 to 1 | 1 to 10 | 1 to 10 | 0.1 to 1 | 0.1 to 1 | 0.1 to 1 | 0.1 to 1 | 0.1 to 1 | 0.1 to 1 | 0.1 to 1 | 1 to 10 | 0.1 to 1 | < 5 | CCn1c(-c2cccnc2[C@H](C)OC)c2c3cc(ccc31)-c1cc(O)cc(c1)C[C@H](NC(=O)[C@@H]1CCCCCN1C(C)=O)C(=O)N1CCC[C@H](N1)C(=O)OCC(C)(C)C2 [Compound A176] | 1 to 10
2 | 0.01 to 0.1 | 0.1 to 1 | 0.1 to 1 | 0.01 to 0.1 | 0.1 to 1 | 0.1 to 1 | 0.1 to 1 | 0.1 to 1 | 0.01 to 0.1 | 0.1 to 1 | 0.1 to 1 | 0.1 to 1 | – | CCn1c(-c2cccnc2[C@H](C)OC)c2c3cc(ccc31)-c1csc(n1)C[C@H](NC(=O)N1CCN(C)CC1)C(=O)N1CCC[C@H](N1)C(=O)OCC(C)(C)C2 [Compound A265, N-((6^3S,4S,Z)-1^1-ethyl-1^2-(2-((S)-1-methoxyethyl)pyridin-3-yl)-10, 10-dimethyl-5,7-dioxo-6^1,6^2,6^3,6^4,6^5,6^6-hexahydro-1^1H-8-oxa-2 (4,2)-thiazola-1 (5,3)-indola-6 (1,3)-pyridazinacycloundecaphane-4-yl)-4-methylpiperazine-1-carboxamide] | 1 to 10
3 | 1 to 10 | 1 to 10 | 1 to 10 | > 10 | 1 to 10 | 1 to 10 | 0.1 to 1 | 1 to 10 | 1 to 10 | 1 to 10 | 1 to 10 | 1 to 10 | – | CCn1c(-c2cccnc2[C@H](C)OC)c2c3cc(ccc31)-c1csc(n1)C[C@H](NC(=O)[C@H](C(C)C)N(C)C(=O)N1[C@H](C)CN(C)C[C@@H]1C)C(=O)N1CCC[C@H](N1)C(=O)OCC(C)(C)C2 [Compound A272] | 1 to 10
4 | 1 to 10 | > 10 | 1 to 10 | 1 to 10 | 0.1 to 1 | 1 to 10 | 0.1 to 1 | 1 to 10 | 1 to 10 | 1 to 10 | 1 to 10 | 1 to 10 | < 5 | CCn1c(-c2cccnc2[C@H](C)OC)c2c3cc(ccc31)-c1cc(c3cn[nH]c3c1)C[C@H](NC(=O)[C@H](C(C)C)N(C)C(C)=O)C(=O)N1CCC[C@H](N1)C(=O)OCC(C)(C)C2 [Compound A388] | 1 to 10
5 | 0.1 to 1 | 0.1 to 1 | 0.1 to 1 | 1 to 10 | 0.1 to 1 | 0.1 to 1 | 0.1 to 1 | 0.1 to 1 | 0.1 to 1 | 1 to 10 | 1 to 10 | 0.1 to 1 | < 5 | CCn1c(-c2cccnc2[C@H](C)OC)c2c3cc(ccc31)-c1csc(n1)C[C@H](NC(=O)[C@H](C(C)C)N(C)C(=O)N1CC[C@@]13CCCNC3)C(=O)N1CCC[C@H](N1)C(=O)OCC(C)(C)C2 [Compound A435] | 1 to 10
6 | 0.1 to 1 | 1 to 10 | 0.1 to 1 | 0.1 to 1 | 0.1 to 1 | 1 to 10 | 0.1 to 1 | 0.1 to 1 | 0.1 to 1 | 0.1 to 1 | 0.1 to 1 | 0.1 to 1 | – | CCn1c(-c2cccnc2[C@H](C)OC)c2c3cc(ccc31)-c1csc(n1)C[C@H](NC(=O)[C@H](C(C)C)N(C)C(=O)N1C[C@@H]3[C@@H](C1)OCCN3C)C(=O)N1CCC[C@H](N1)C(=O)OCC(C)(C)C2 [Compound A472] | 0.01 to 0.1
